The values below come from PubChem BioAssay (NCI).

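Values below derive from 48-hour exposures of cells grown in 96-well plates, with endpoints linearly interpolated between the two concentrations bracketing the appropriate inhibition level. At the TGI there is no net growth.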 A value given as a limit tells only on which side of the number the result lay.

Among the test systems are RPMI-8226 leukemia; SF-539 CNS; MDA-MB-435; COLO 205 colon; A549 NSCLC; NCI-H460 lung; SNB-75 CNS; MDA-MB-231 breast; HCT-116 colon; MDA-N.
Holding throughout (experiment): growth of human tumour cells (NCI), 48 h

For `Cc1cc2c(cc1C)[n+](=O)c(C(=O)c1ccccc1)c(C(F)(F)F)n2[O-]`, the TGI with RPMI-8226 leukemia was 3.6 µM; in the experiment on SF-539 CNS it was > 35.1 µM; with MDA-MB-435, 11.2 µM; with COLO 205 colon, 2.95 µM; in the experiment with A549 NSCLC it was 3.88 µM; in the experiment with NCI-H460 lung it was 2.98 µM. In addition, the TGI with SNB-75 CNS was found to be 10.7 µM; with MDA-MB-231 breast it was 6.55 µM; with HCT-116 colon it was 10.6 µM; with MDA-N, 14.2 µM.
For the compound `COc1ccc(CNc2cc(=O)n(C)c(=O)[nH]2)cc1`, the TGI with RPMI-8226 leukemia, with SF-539 CNS, in the experiment on MDA-MB-435, in the experiment with COLO 205 colon, in the experiment with A549 NSCLC and in the experiment with NCI-H460 lung was > 100 µM throughout. The TGI in the experiment with SNB-75 CNS, with MDA-MB-231 breast, in the experiment with HCT-116 colon and with MDA-N was > 100 µM throughout.
